Laboratory results from patent US11034650B2, “Compounds useful for treating a Mannheimia haemolytica or Histophilus somni infection” (Intervet Inc., priority 2016, dated 2021).
Converted amounts (≈) assume the structure as drawn.

Legend:
Assay type in all cases: cell-based
[1] = test system: Mannheimia haemolytica MH 12587 (1071, BRD field isolate, macrolide-resistance: erm+, E+); test: MIC, broth-microdilution (CLSI VET01-A4), strain MH 12587; details: Mannheimia haemolytica strain MH 12587, broth-microdilution; unit assumed
In short: (§1)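 Test articles are arrayed as a twofold dilution range in microdilution trays. Wells are scored by naked eye, and the MIC is taken where turbidity first disappears.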

[2] = test system: Pasteurella multocida PM 10775 (080130003051, BRD field isolate); test: MIC, broth-microdilution (CLSI VET01-A4), strain PM 10775; details: Pasteurella multocida strain PM 10775, broth-microdilution; unit assumed
In short: as §1

[3] = test system: Mannheimia haemolytica MH 10720 (154, BRD field isolate); test: MIC, broth-microdilution (CLSI VET01-A4), strain MH 10720; details: Mannheimia haemolytica strain MH 10720, broth-microdilution; unit assumed
In short: as §1

[4] = test system: Pasteurella multocida PM 6391 (ATCC 43137, reference strain); test: MIC, broth-microdilution (CLSI VET01-A4), strain PM 6391; details: Pasteurella multocida strain PM 6391, broth-microdilution; unit assumed
In short: as §1

[5] = test system: Pasteurella multocida PM 6267 (P 2225 (L386), reference strain, mouse infection strain); test: MIC, broth-microdilution (CLSI VET01-A4), strain PM 6267; details: Pasteurella multocida strain PM 6267, broth-microdilution; unit assumed
In short: as §1

[6] = test system: Mannheimia haemolytica MH 6374 (ATCC 33396, reference strain); test: MIC, broth-microdilution (CLSI VET01-A4), strain MH 6374; details: Mannheimia haemolytica strain MH 6374, broth-microdilution; unit assumed
In short: as §1

[7] = test system: Mannheimia haemolytica MH 13093 (XB0472-6014.1, BRD field isolate); test: MIC, broth-microdilution (CLSI VET01-A4), strain MH 13093; details: Mannheimia haemolytica strain MH 13093, broth-microdilution; unit assumed
In short: as §1

[8] = test system: Pasteurella multocida PM 12080 (IV102277-0093, BRD field isolate); test: MIC, broth-microdilution (CLSI VET01-A4), strain PM 12080; details: Pasteurella multocida strain PM 12080, broth-microdilution; unit assumed
In short: as §1

[9] = test system: Mannheimia haemolytica MH 6357 (M7/2, reference strain, cattle infection strain); test: MIC, broth-microdilution (CLSI VET01-A4), strain MH 6357; details: Mannheimia haemolytica strain MH 6357, broth-microdilution; unit assumed
In short: as §1

[10] = test system: Mannheimia haemolytica MH 13065 (XB0446-6003.9, BRD field isolate); test: MIC, broth-microdilution (CLSI VET01-A4), strain MH 13065; details: Mannheimia haemolytica strain MH 13065, broth-microdilution; unit assumed
In short: as §1

| SMILES | MIC PM 10775 [2] [mg/L] | MIC PM 6391 [4] [mg/L] | MIC PM 6267 [5] [mg/L] | MIC PM 12080 [8] [mg/L] | MIC MH 12587 [1] [mg/L] | MIC MH 10720 [3] [mg/L] | MIC MH 6374 [6] [mg/L] | MIC MH 13093 [7] [mg/L] | MIC MH 6357 [9] [mg/L] | MIC MH 13065 [10] [mg/L] |
| --- | --- | --- | --- | --- | --- | --- | --- | --- | --- | --- |
| CSC(C)(C)[C@H](NC(=O)c1ccc(C#Cc2ccc(CNCC#N)cc2)cc1)C(=O)NO [Compound 246] | ≤ 0.1 | 0.2 (≈ 0.444 µM) | ≤ 0.1 | 0.2 (≈ 0.444 µM) | 0.8 (≈ 1.78 µM) | ≤ 0.1 | 0.8 (≈ 1.78 µM) | 0.4 (≈ 0.888 µM) | 0.4 (≈ 0.888 µM) | 0.8 (≈ 1.78 µM) |
| CSC(C)(C)[C@H](NC(=O)c1ccc(C#Cc2ccc(CNCc3cccnc3)cc2)cc1)C(=O)NO [Compound 247] | ≤ 0.1 | 0.8 (≈ 1.59 µM) | ≤ 0.1 | 0.2 (≈ 0.398 µM) | 0.8 (≈ 1.59 µM) | 0.2 (≈ 0.398 µM) | 0.8 (≈ 1.59 µM) | 0.8 (≈ 1.59 µM) | 0.4 (≈ 0.796 µM) | 0.4 (≈ 0.796 µM) |
| CSC(C)(C)[C@H](NC(=O)c1ccc(C#Cc2ccc(CNCc3ccnc(Cl)c3)cc2)cc1)C(=O)NO [Compound 248] | 0.2 (≈ 0.372 µM) | 0.8 (≈ 1.49 µM) | 0.4 (≈ 0.745 µM) | 0.8 (≈ 1.49 µM) | 1.6 (≈ 2.98 µM) | 0.4 (≈ 0.745 µM) | 1.6 (≈ 2.98 µM) | 1.6 (≈ 2.98 µM) | 1.6 (≈ 2.98 µM) | 1.6 (≈ 2.98 µM) |
| CSC(C)(C)[C@H](NC(=O)c1ccc(C#Cc2ccc(CNCc3ccco3)cc2)cc1)C(=O)NO [Compound 250] | ≤ 0.1 | 0.2 (≈ 0.407 µM) | ≤ 0.1 | ≤ 0.1 | 0.8 (≈ 1.63 µM) | ≤ 0.1 | 0.8 (≈ 1.63 µM) | 0.4 (≈ 0.814 µM) | 0.4 (≈ 0.814 µM) | 0.4 (≈ 0.814 µM) |
| CSC(C)(C)[C@H](NC(=O)c1ccc(C#Cc2ccc(CNCc3cccs3)cc2)cc1)C(=O)NO [Compound 251] | ≤ 0.1 | 0.2 (≈ 0.394 µM) | ≤ 0.1 | ≤ 0.1 | 1.6 (≈ 3.15 µM) | ≤ 0.1 | 0.8 (≈ 1.58 µM) | 0.8 (≈ 1.58 µM) | 0.8 (≈ 1.58 µM) | 0.8 (≈ 1.58 µM) |

Further lines, with some results ahead:

| MIC PM 10775 [2] [mg/L] | MIC PM 6391 [4] [mg/L] | MIC PM 6267 [5] [mg/L] | MIC PM 12080 [8] [mg/L] | SMILES | MIC MH 12587 [1] [mg/L] | MIC MH 10720 [3] [mg/L] | MIC MH 6374 [6] [mg/L] | MIC MH 13093 [7] [mg/L] | MIC MH 6357 [9] [mg/L] | MIC MH 13065 [10] [mg/L] |
| --- | --- | --- | --- | --- | --- | --- | --- | --- | --- | --- |
| 0.2 (≈ 0.417 µM) | 1.6 (≈ 3.34 µM) | 0.4 (≈ 0.834 µM) | 0.8 (≈ 1.67 µM) | CSC(C)(C)[C@H](NC(=O)c1ccc(C#Cc2ccc(CNC3CCCC3)cc2)cc1)C(=O)NO [Compound 244] | 6.3 (≈ 13.1 µM) | 1.6 (≈ 3.34 µM) | 6.3 (≈ 13.1 µM) | 6.3 (≈ 13.1 µM) | 3.1 (≈ 6.46 µM) | 3.1 (≈ 6.46 µM) |
| ≤ 0.1 | 0.8 (≈ 1.76 µM) | 0.4 (≈ 0.882 µM) | 0.8 (≈ 1.76 µM) | CCCNCc1ccc(C#Cc2ccc(C(=O)N[C@H](C(=O)NO)C(C)(C)SC)cc2)cc1 [Compound 245] | 3.1 (≈ 6.83 µM) | 0.4 (≈ 0.882 µM) | 3.1 (≈ 6.83 µM) | 3.1 (≈ 6.83 µM) | 3.1 (≈ 6.83 µM) | 1.6 (≈ 3.53 µM) |
| ≤ 0.1 | 0.8 (≈ 1.59 µM) | 0.2 (≈ 0.398 µM) | 0.4 (≈ 0.796 µM) | CSC(C)(C)[C@H](NC(=O)c1ccc(C#Cc2ccc(CNCc3ccccn3)cc2)cc1)C(=O)NO [Compound 249] | 1.6 (≈ 3.18 µM) | 0.2 (≈ 0.398 µM) | 1.6 (≈ 3.18 µM) | 0.8 (≈ 1.59 µM) | 0.8 (≈ 1.59 µM) | 0.8 (≈ 1.59 µM) |
| 0.4 (≈ 0.776 µM) | 0.8 (≈ 1.55 µM) | 0.4 (≈ 0.776 µM) | 0.8 (≈ 1.55 µM) | CSC(C)(C)[C@H](NC(=O)c1ccc(C#Cc2ccc(CNCc3ccc(C)cc3)cc2)cc1)C(=O)NO [Compound 252] | 3.1 (≈ 6.01 µM) | 0.4 (≈ 0.776 µM) | 3.1 (≈ 6.01 µM) | 1.6 (≈ 3.1 µM) | 1.6 (≈ 3.1 µM) | 1.6 (≈ 3.1 µM) |
| ≤ 0.1 | 0.4 (≈ 0.807 µM) | ≤ 0.1 | 0.4 (≈ 0.807 µM) | CSC(C)(C)[C@H](NC(=O)c1ccc(C#Cc2ccc(CNCC3CCCO3)cc2)cc1)C(=O)NO (some centres unmarked) [Compound 253] | 3.1 (≈ 6.25 µM) | 0.8 (≈ 1.61 µM) | 3.1 (≈ 6.25 µM) | 3.1 (≈ 6.25 µM) | 3.1 (≈ 6.25 µM) | 1.6 (≈ 3.23 µM) |
| ≤ 0.1 | 0.4 (≈ 0.786 µM) | ≤ 0.1 | ≤ 0.1 | CSC(C)(C)[C@H](NC(=O)c1ccc(C#Cc2ccc(CNCc3nccs3)cc2)cc1)C(=O)NO [Compound 254] | 1.6 (≈ 3.15 µM) | 0.2 (≈ 0.393 µM) | 1.6 (≈ 3.15 µM) | 0.8 (≈ 1.57 µM) | 0.8 (≈ 1.57 µM) | 0.8 (≈ 1.57 µM) |
